Assay results as given in the NIST ThermoML archive (doi:10.1016/j.jct.2013.12.029).
± gives the expanded uncertainty stated by the source.

Conditions: 101.33 kPa, Liquid, Vibrating tube method

CC(C)=O [acetone]
mass density (298.15 K): 785.32 ± 1 kg/m3

CCCCCC[N+]1(C)CCCCC1.O=S(=O)([N-]S(=O)(=O)C(F)(F)F)C(F)(F)F
mass density (293 K): 1329.5 ± 1.1 kg/m3
mass density (298.15 K): 1325.4 ± 1.1 kg/m3

c1ccsc1 [thiophene]
mass density (298.15 K): 1058.92 ± 1 kg/m3

CCCO [propan-1-ol]
mass density (298.15 K): 799.52 ± 1 kg/m3

CCCC[N+]1(C)CCCCC1.O=S(=O)([N-]S(=O)(=O)C(F)(F)F)C(F)(F)F
mass density (298.15 K): 1379.2 ± 1.1 kg/m3

CCCCCCC [heptane]
mass density (298.15 K): 679.54 ± 1 kg/m3

CCC[N+]1(C)CCCCC1.O=S(=O)([N-]S(=O)(=O)C(F)(F)F)C(F)(F)F
mass density (298.15 K): 1409.8 ± 1.1 kg/m3

c1ccc2sccc2c1 [benzo[b]thiophene]
mass density (298.15 K): 1427 ± 1 kg/m3
